Measured values reported in ChEMBL document CHEMBL1201862, “PubChem BioAssay data set” (2004).
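Each compound was tested at five concentrations against cells in 96-well plates for 48 hours. GI50: concentration for 50% inhibition of growth.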 Activity calls are given as the source filed them. Cut-off read from the data, not from the text of the source: active = GI50 up to about 1.1 µM and inactive = higher.

Columns and labels:
Experiment in all cases: NCI-60 cell line screen, 48 h
786-0 = tested on: 786-0
A498 = tested on: A498
ACHN = tested on: ACHN
BT-549 = tested on: BT-549
HOP-92 = tested on: HOP-92
Hs-578T = tested on: Hs-578T
K562 = tested on: K562
LOX IMVI = tested on: LOX IMVI
M14 = tested on: M14
MCF7 = tested on: MCF7
MOLT-4 = tested on: MOLT-4
NCI-H522 = tested on: NCI-H522
PC-3 = tested on: PC-3
SF-268 = tested on: SF-268
SK-MEL-5 = tested on: SK-MEL-5
SK-OV-3 = tested on: SK-OV-3
SNB-19 = tested on: SNB-19
SNB-75 = tested on: SNB-75
SW-620 = tested on: SW-620
U-251 = tested on: U-251

SMILES	GI50 (786-0)	GI50 (A498)	GI50 (ACHN)	GI50 (BT-549)	GI50 (HOP-92)	GI50 (Hs-578T)	GI50 (K562)	GI50 (LOX IMVI)	GI50 (M14)	GI50 (MCF7)	GI50 (MOLT-4)	GI50 (NCI-H522)	GI50 (PC-3)	GI50 (SF-268)	GI50 (SK-MEL-5)	GI50 (SK-OV-3)	GI50 (SNB-19)	GI50 (SNB-75)	GI50 (SW-620)	GI50 (U-251)
S=C(NCCc1ccccn1)N/N=C(\c1ccccc1)c1ccccn1	1.47 µM (inactive)	0.211 µM (active)	< 0.0344 µM (active)	3.3 µM (inactive)	1.63 µM (inactive)	20.5 µM (inactive)	< 0.01 µM (active)	0.301 µM (active)	0.0378 µM (active)	< 0.01 µM (active)	< 0.01 µM (active)	< 0.01 µM (active)	0.0583 µM (active)	0.222 µM (active)	1.45 µM (inactive)	0.815 µM (active)	5.43 µM (inactive)	6.47 µM (inactive)	0.0331 µM (active)	0.121 µM (active)
Cc1cc(S(=O)(=O)Nc2nc(N)nc(N3CCOCC3)n2)c(SCC(=O)O)cc1Cl	> 10 µM (inactive)	> 10 µM (inactive)	> 10 µM (inactive)	> 10 µM (inactive)	> 10 µM (inactive)	> 10 µM (inactive)	> 10 µM (inactive)	> 10 µM (inactive)	> 10 µM (inactive)	> 10 µM (inactive)	> 10 µM (inactive)	> 10 µM (inactive)	> 10 µM (inactive)	> 10 µM (inactive)	> 10 µM (inactive)	> 10 µM (inactive)	> 10 µM (inactive)	> 10 µM (inactive)	> 10 µM (inactive)	> 10 µM (inactive)
CC(C)(C)C1=CC(C)(n2[nH]c(=O)n(-c3ccccc3)c2=O)C=C(C(C)(C)C)C1=O	> 100 µM (inactive)	> 100 µM (inactive)	> 100 µM (inactive)	> 100 µM (inactive)	> 100 µM (inactive)	> 100 µM (inactive)	47 µM (inactive)	> 100 µM (inactive)		> 100 µM (inactive)		> 100 µM (inactive)	> 100 µM (inactive)	> 100 µM (inactive)	> 100 µM (inactive)	> 100 µM (inactive)	> 100 µM (inactive)	98.4 µM (inactive)	> 100 µM (inactive)	> 100 µM (inactive)
CC(=O)OCc1cc(CCC(=O)NCCNc2c3ccccc3nc3ccccc23)cc(COC(C)=O)c1O[Si](C)(C)C(C)(C)C	8.81 µM (inactive)	1.91 µM (inactive)	13.8 µM (inactive)	13.7 µM (inactive)	4.89 µM (inactive)	3.3 µM (inactive)	2.65 µM (inactive)	1.95 µM (inactive)	5.26 µM (inactive)	2.2 µM (inactive)	2.4 µM (inactive)	5.5 µM (inactive)	10.5 µM (inactive)			13.9 µM (inactive)	11.1 µM (inactive)		9.44 µM (inactive)	4.88 µM (inactive)
CCN(CC)CCc1c2c(nc3ccccc13)C(=O)c1cccnc1C2=O	2.07 µM (inactive)	1.97 µM (inactive)	0.719 µM (active)	2.4 µM (inactive)	3.13 µM (inactive)	4.99 µM (inactive)	1.16 µM (inactive)	0.369 µM (active)	0.454 µM (active)	0.345 µM (active)	3.24 µM (inactive)	0.731 µM (active)	2.82 µM (inactive)	2.44 µM (inactive)	0.209 µM (active)	1.09 µM (active)		5.65 µM (inactive)	0.424 µM (active)	2.88 µM (inactive)
C/C(=N\NC(=N)N)C(CN(C)C)C(c1ccccc1)c1c(O)c2ccccc2oc1=O (centres undefined)	> 100 µM (inactive)	> 100 µM (inactive)	> 100 µM (inactive)	72.9 µM (inactive)	4.91 µM (inactive)	> 100 µM (inactive)	> 100 µM (inactive)	> 100 µM (inactive)	> 100 µM (inactive)	> 100 µM (inactive)	> 100 µM (inactive)	> 100 µM (inactive)	> 100 µM (inactive)	> 100 µM (inactive)	> 100 µM (inactive)	> 100 µM (inactive)	> 100 µM (inactive)	98.4 µM (inactive)	> 100 µM (inactive)	> 100 µM (inactive)
CN(C)c1nc(N)nc(CS)n1	> 100 µM (inactive)	> 100 µM (inactive)	> 100 µM (inactive)	> 100 µM (inactive)	> 100 µM (inactive)	> 100 µM (inactive)	29.9 µM (inactive)	42.3 µM (inactive)	> 100 µM (inactive)	> 100 µM (inactive)	50 µM (inactive)	> 100 µM (inactive)	54.3 µM (inactive)	> 100 µM (inactive)	> 100 µM (inactive)	> 100 µM (inactive)	> 100 µM (inactive)	> 100 µM (inactive)	> 100 µM (inactive)	89.5 µM (inactive)
